According to patent publication US20220313698A1, “MODULATORS OF CYSTIC FIBROSIS TRANSMEMBRANE CONDUCTANCE REGULATOR” (Vertex Pharmaceuticals Incorporated, priority 2019, published 2022):

Biological target: CFTR-mediated chloride transport (Homo sapiens, UniProt P13569)
Assay: Corrector Assay A - membrane potential dye assay (enteroid cells)
Conditions: for Corrector Assay A % activity: % of chloride transport of triple combination control (1 μM (14S)-dispiro macrocycle + 3 μM tezacaftor + 300 nM ivacaftor); for EC50: read-out: Corrector Assay A EC50, human intestinal enteroid cells, 18-24 h incubation, acute 10 μM forskolin + 300 nM ivacaftor

| Corrector Assay A % activity | EC50 | Compound |
| --- | --- | --- |
| ++ (++ is 30-60%) | > 3000 nM | COC(=O)CCc1ccc(C2CC[C@@H]3CN(c4nc(C(C)(C)C)ccc4C(=O)NS(=O)(=O)c4cccc(n4)N2)C(C)(C)C3)nc1 (stereo partly drawn) [Compound 91, methyl 3-{6-[(14S)-8-tert-butyl-12,12-dimethyl-2,2,4-trioxo-2λ^6-thia-3,9,11,18,23-pentaazatetracyclo[17.3.1.111,14.05,10]tetracosa-1(23),5(10),6,8,19,21-hexaen-17-yl]pyridin-3-yl}propanoate] |
| +++ (+++ is >60%) | < 1000 nM | COC(=O)N1CCC(c2ccnc(C3CC[C@@H]4CN(c5nc(C(C)(C)C)ccc5C(=O)NS(=O)(=O)c5cccc(n5)N3)C(C)(C)C4)c2)CC1 (stereo partly drawn) [Compound 96, methyl 4-{2-[(14S)-8-tert-butyl-12,12-dimethyl-2,2,4-trioxo-2λ^6-thia-3,9,11,18,23-pentaazatetracyclo[17.3.1.111,14.05,10]tetracosa-1(23),5(10),6,8,19,21-hexaen-17-yl]pyridin-4-yl}piperidine-1-carboxylate] |
| ++ (++ is 30-60%) | 1000 to 3000 nM | CC(C)(C)c1ccc2c(n1)N1C[C@@H](CCC(c3ccc(CCC(=O)O)cn3)Nc3cccc(n3)S(=O)(=O)NC2=O)CC1(C)C (stereo partly shown) [Compound 97] |
| + (+ is <30%) | 1000 to 3000 nM | CC(C)(C)c1ccc2c(n1)N1C[C@@H](CCC(c3ccc(CCC(=O)O)cn3)Nc3cccc(n3)S(=O)(=O)NC2=O)CC1(C)C (stereo partly drawn) [Compound 98, 3-{6-[(14S)-8-tert-Butyl-12,12-dimethyl-2,2,4-trioxo-2λ^6-thia-3,9,11,18,23-pentaazatetracyclo[17.3.1.111,14.05,10]tetracosa-1(23),5(10),6,8,19,21-hexaen-17-yl]pyridin-3-yl}propanoic acid] |
| ++ (++ is 30-60%) | < 1000 nM | CN(C)Cc1cccc([C@H]2CC[C@@H]3CN(c4nc(C(C)(C)C)ccc4C(=O)NS(=O)(=O)c4cccc(n4)N2)C(C)(C)C3)n1 [Compound 99] |
| +++ (+++ is >60%) | < 1000 nM | CC(=O)NCc1cccc([C@H]2CC[C@@H]3CN(c4nc(C(C)(C)C)ccc4C(=O)NS(=O)(=O)c4cccc(n4)N2)C(C)(C)C3)n1 [Compound 100, N-({6-[(14S,17R)-8-tert-Butyl-12,12-dimethyl-2,2,4-trioxo-2λ^6-thia-3,9,11,18,23-pentaazatetracyclo[17.3.1.111,14.05,10]tetracosa-1(22),5,7,9,19(23),20-hexaen-17-yl]pyridin-2-yl}methyl)acetamide] |
| ++ (++ is 30-60%) | < 1000 nM | COC(=O)NCc1cccc([C@H]2CC[C@@H]3CN(c4nc(C(C)(C)C)ccc4C(=O)NS(=O)(=O)c4cccc(n4)N2)C(C)(C)C3)n1 [Compound 101, Methyl N-({6-[(14S,17R)-8-tert-butyl-12,12-dimethyl-2,2,4-trioxo-2λ^6-thia-3,9,11,18,23-pentaazatetracyclo[17.3.1.111,14.05,10]tetracosa-1(22),5,7,9,19(23),20-hexaen-17-yl]pyridin-2-yl}methyl)carbamate] |
| +++ (+++ is >60%) | < 1000 nM | CN(C)Cc1ccc(C2CC[C@@H]3CN(c4nc(C(C)(C)C)ccc4C(=O)NS(=O)(=O)c4cccc(n4)N2)C(C)(C)C3)nc1 (stereo partly shown) [Compound 102] |
| ++ (++ is 30-60%) | < 1000 nM | CN(C)Cc1ccc(C2CC[C@@H]3CN(c4nc(C(C)(C)C)ccc4C(=O)NS(=O)(=O)c4cccc(n4)N2)C(C)(C)C3)nc1 (stereo partly shown) [Compound 103] |
| ++ (++ is 30-60%) | < 1000 nM | CC(C)(C)c1ccc2c(n1)N1C[C@@H](CC[C@H](c3cccc(CCN)n3)Nc3cccc(n3)S(=O)(=O)NC2=O)CC1(C)C [Compound 104] |
| +++ (+++ is >60%) | < 1000 nM | CC(C)(C)CCc1ccc2c(n1)N1C[C@@H](CC[C@H](c3ccccn3)Nc3cccc(n3)S(=O)(=O)NC2=O)CC1(C)C [Compound 105, (14S,17R)-8-(3,3-dimethylbutyl)-12,12-dimethyl-17-(pyridin-2-yl)-2λ^6-thia-3,9,11,18,23-pentaazatetracyclo[17.3.1.111,14.05,10]tetracosa-1(22),5,7,9,19(23),20-hexaene-2,2,4-trione] |
| +++ (+++ is >60%) | < 1000 nM | CC(C)(C)/C=C/c1ccc2c(n1)N1C[C@@H](CC[C@H](c3ccccn3)Nc3cccc(n3)S(=O)(=O)NC2=O)CC1(C)C [Compound 106, (14S,17R)-8-[(1E)-3,3-dimethylbut-1-en-1-yl]-12,12-dimethyl-17-(pyridin-2-yl)-2λ^6-thia-3,9,11,18,23-pentaazatetracyclo[17.3.1.111,14.05,10]tetracosa-1(22),5,7,9,19(23),20-hexaene-2,2,4-trione] |
| ++ (++ is 30-60%) | < 1000 nM | COCCc1ccc(C2CC[C@@H]3CN(c4nc(C(C)(C)C)ccc4C(=O)NS(=O)(=O)c4cccc(n4)N2)C(C)(C)C3)nc1 (stereo partly shown) [Compound 111] |
| ++ (++ is 30-60%) | < 1000 nM | COCCc1ccc(C2CC[C@@H]3CN(c4nc(C(C)(C)C)ccc4C(=O)NS(=O)(=O)c4cccc(n4)N2)C(C)(C)C3)nc1 (stereo partly shown) [Compound 112] |
| ++ (++ is 30-60%) | < 1000 nM | CC(C)(C)c1ccc2c(n1)N1C[C@@H](CCC(c3ccc(CCN)cn3)Nc3cccc(n3)S(=O)(=O)NC2=O)CC1(C)C (stereo partly shown) [Compound 113] |
| ++ (++ is 30-60%) | < 1000 nM | CC(C)(C)c1ccc2c(n1)N1C[C@@H](CCC(c3ccc(CCN)cn3)Nc3cccc(n3)S(=O)(=O)NC2=O)CC1(C)C (stereo partly shown) [Compound 114] |
| +++ (+++ is >60%) | < 1000 nM | CC(C)(C)OC(=O)N1CCC(c2ccnc(C3CC[C@@H]4CN(c5nc(C(C)(C)C)ccc5C(=O)NS(=O)(=O)c5cccc(n5)N3)C(C)(C)C4)c2)CC1 (stereo partly drawn) [Compound 117, tert-butyl 4-{2-[(14S)-8-tert-butyl-12,12-dimethyl-2,2,4-trioxo-2λ^6-thia-3,9,11,18,23-pentaazatetracyclo[17.3.1.111,14.05,10]tetracosa-1(23),5(10),6,8,19,21-hexaen-17-yl]pyridin-4-yl}piperidine-1-carboxylate] |
| ++ (++ is 30-60%) | < 1000 nM | CC(C)(C)OC(=O)N1CCC(c2ccnc(C3CC[C@@H]4CN(c5nc(C(C)(C)C)ccc5C(=O)NS(=O)(=O)c5cccc(n5)N3)C(C)(C)C4)c2)CC1 (stereo partly drawn) [Compound 118, tert-butyl 4-{2-[(14S)-8-tert-butyl-12,12-dimethyl-2,2,4-trioxo-2λ^6-thia-3,9,11,18,23-pentaazatetracyclo[17.3.1.111,14.05,10]tetracosa-1(23),5(10),6,8,19,21-hexaen-17-yl]pyridin-4-yl}piperidine-1-carboxylate] |
| +++ (+++ is >60%) | < 1000 nM | CC(C)(C)c1ccc2c(n1)N1C[C@@H](CCC(c3cc(C4CCNCC4)ccn3)Nc3cccc(n3)S(=O)(=O)NC2=O)CC1(C)C (stereo partly shown) [Compound 123] |
| ++ (++ is 30-60%) | < 1000 nM | CC(C)(C)c1ccc2c(n1)N1C[C@@H](CCC(c3cc(C4CCNCC4)ccn3)Nc3cccc(n3)S(=O)(=O)NC2=O)CC1(C)C (stereo partly drawn) [Compound 124, (14S)-8-tert-butyl-12,12-dimethyl-17-[4-(piperidin-4-yl)pyridin-2-yl]-2λ^6-thia-3,9,11,18,23-pentaazatetracyclo[17.3.1.111,14.05,10]tetracosa-1(23),5(10),6,8,19,21-hexaene-2,2,4-trione] |
| +++ (+++ is >60%) | < 1000 nM | CC(C)(C)c1ccc2c(n1)N1C[C@@H](CCC(c3ccc(-c4cc[nH]n4)cn3)Nc3cccc(n3)S(=O)(=O)NC2=O)CC1(C)C (stereo partly shown) [Compound 129] |
| +++ (+++ is >60%) | < 1000 nM | CC(C)(C)c1ccc2c(n1)N1C[C@@H](CCC(c3ccc(-c4cc[nH]n4)cn3)Nc3cccc(n3)S(=O)(=O)NC2=O)CC1(C)C (stereo partly shown) [Compound 130] |
| + (+ is <30%) | > 3000 nM | CC(C)(C)c1ccc2c(n1)N1C[C@@H](CC[C@@H](c3cccc(C4CCNCC4)n3)Nc3cccc(n3)S(=O)(=O)NC2=O)CC1(C)C [Compound 131] |
| ++ (++ is 30-60%) | < 1000 nM | CC(C)(C)c1ccc2c(n1)N1C[C@@H](CC[C@H](c3cccc(C4CCNCC4)n3)Nc3cccc(n3)S(=O)(=O)NC2=O)CC1(C)C [Compound 132, (14S,17R)-8-tert-Butyl-12,12-dimethyl-17-[6-(piperidin-4-yl)pyridin-2-yl]-2λ^6-thia-3,9,11,18,23-pentaazatetracyclo[17.3.1.111,14.05,10]tetracosa-1(23),5(10),6,8,19,21-hexaene-2,2,4-trione] |
| + (+ is <30%) | < 1000 nM | CC(C)(C)c1ccc2c(n1)N1C[C@@H](CC[C@@H](c3cccc(CCCN)n3)Nc3cccc(n3)S(=O)(=O)NC2=O)CC1(C)C [Compound 133] |
| +++ (+++ is >60%) | < 1000 nM | CC(C)(C)c1ccc2c(n1)N1C[C@@H](CC[C@H](c3cccc(CCCN)n3)Nc3cccc(n3)S(=O)(=O)NC2=O)CC1(C)C [Compound 134, (14S,17R)-17-[6-(3-aminopropyl)pyridin-2-yl]-8-tert-butyl-12,12-dimethyl-2λ^6-thia-3,9,11,18,23-pentaazatetracyclo[17.3.1.111,14.05,10]tetracosa-1(23),5(10),6,8,19,21-hexaene-2,2,4-trione] |
| ++ (++ is 30-60%) | < 1000 nM | CC(C)(C)c1ccc2c(n1)N1C[C@@H](CCC(c3ccc(-c4cn[nH]c4)cn3)Nc3cccc(n3)S(=O)(=O)NC2=O)CC1(C)C (stereo partly shown) [Compound 135] |
| +++ (+++ is >60%) | < 1000 nM | CC(C)(C)c1ccc2c(n1)N1C[C@@H](CCC(c3ccc(-c4cn[nH]c4)cn3)Nc3cccc(n3)S(=O)(=O)NC2=O)CC1(C)C (stereo partly shown) [Compound 136] |
| ++ (++ is 30-60%) | < 1000 nM | CC(C)(C)c1ccc2c(n1)N1C[C@@H](CCC(c3ccc(CCCN)cn3)Nc3cccc(n3)S(=O)(=O)NC2=O)CC1(C)C (stereo partly shown) [Compound 137] |
